Reference: US20170252442A1, “PHOTOHEXER COMPOUNDS AND PHARMACEUTICAL COMPOSITION AND USE THEREOF” (RAINBOW PHARMATECH LLC, priority 2014, published 2017)

Columns and labels:
Eca-109 cells = assay: MTT assay, photodynamic therapy on Eca-109 cells; type: cell-based, human
From the text: (§1) The cells in logarithmic growth phase were collected and inoculated on 24-well culture plates. When reaching 70%-80% confluence, cells were divided randomly into the following groups: control (the parallel control group without photosensitizer and irradiation), irradiation (irradiation treatment alone without photosensitizer); (photosensitizer treatment alone without irradiation), photodynamic treatment (treatment by photosensitizer in combination with irradiation). For the photosensitizer alone treatment group and photodynamic treatment group, an appropriate amount of Photohexer-1 (P-1) or Photohexer-2 (P-2) was respectively added away from light to give a final concentration of 0.8, 1.6, 3.2, 6.4 μM. Each group set 3 replicates. Cells were incubated with the active agent, different treatments were carried out according to the grouping. […] After treatment and digestion of each group of cells, it was inoculated into a 96-well plate at 100 μL/well, and four wells were set for each treatment. MTT assay was performed after 24 h from inoculation: 20 μL MTT solution was added to each well under the condition away from light, and the culture was continued for 4 hours. 150 μL DMSO was added to each well after discarding the supernatant. After 15 min of dissolution, the absorbance value (OD value) was measured using a microplate reader and the relative survival rate of cells was calculated according to the following formula: […]

SGC7901 cells = assay: MTT assay, photodynamic therapy on SGC7901 cells; type: cell-based, human
From the text: as §1

MDA-MB-231 cells = assay: MTT assay, photodynamic therapy on MDA-MB-231 cells; type: cell-based, human
From the text: as §1

the cell lines = assay: MTT assay, summary over the cell lines (photosensitizer alone); type: cell-based; settings: without light irradiation; selected drug concentration range (0.8-6.4 μM)
From the text: The cells in logarithmic growth phase were collected and inoculated on 24-well culture plates. When reaching 70%-80% confluence, cells were divided randomly into the following groups: control (the parallel control group without photosensitizer and irradiation), irradiation (irradiation treatment alone without photosensitizer); (photosensitizer treatment alone without irradiation), photodynamic treatment (treatment by photosensitizer in combination with irradiation). For the photosensitizer alone treatment group and photodynamic treatment group, an appropriate amount of Photohexer-1 (P-1) or Photohexer-2 (P-2) was respectively added away from light to give a final concentration of 0.8, 1.6, 3.2, 6.4 μM. Each group set 3 replicates. Cells were incubated with the active agent, different treatments were carried out according to the grouping. Three different light intensities were selected for the photodynamic treatment group, which were 2.6, 5.2 and 12.4 J/cm^2, respectively. After treatment and digestion of each group of cells, it was inoculated into a 96-well plate at 100 μL/well, and four wells were set for each treatment. […] After 15 min of dissolution, the absorbance value (OD value) was measured using a microplate reader and the relative survival rate of cells was calculated according to the following formula: […]

MCF-7 cells = assay: MTT assay, photodynamic therapy on MCF-7 cells; type: cell-based, human
From the text: as §1

[1] = 0.8 μM alone treatment, without irradiation
[2] = 0.8 μM combined with 2.6 J/cm^2 light irradiation
[3] = 0.8 μM combined with 5.2 J/cm^2 light irradiation
[4] = 0.8 μM combined with 10.4 J/cm^2 light irradiation
[5] = 1.6 μM alone treatment, without irradiation
[6] = 1.6 μM combined with 2.6 J/cm^2 light irradiation
[7] = 1.6 μM combined with 5.2 J/cm^2 light irradiation
[8] = 1.6 μM combined with 10.4 J/cm^2 light irradiation
[9] = 3.2 μM alone treatment, without irradiation
[10] = 3.2 μM combined with 2.6 J/cm^2 light irradiation
[11] = 3.2 μM combined with 5.2 J/cm^2 light irradiation
[12] = 3.2 μM combined with 10.4 J/cm^2 light irradiation
[13] = 6.4 μM alone treatment, without irradiation
[14] = 6.4 μM combined with 2.6 J/cm^2 light irradiation
[15] = 6.4 μM combined with 5.2 J/cm^2 light irradiation
[16] = 6.4 μM combined with 10.4 J/cm^2 light irradiation

C=Cc1c(C)c2cc3nc(cc4[nH]c(cc5nc(cc1[nH]2)C(C)=C5C(C)OCCCCCC)c(C)c4CCC(=O)[O-])C(CCC(=O)[O-])=C3C.[Na+].[Na+] (stereo not shown) [Photohexer P-2, 4-(1-hexyloxyethyl)-6,7-bis(propionatesodium)-1,3,5,8-tetramethyl-2-vinylporphyrin]
Cell survival rate (Eca-109 cells; [1]): 100.38 ± 4.27% | Cell survival rate (Eca-109 cells; [2]): 96.96 ± 3.87% | Cell survival rate (Eca-109 cells; [3]): 75.83 ± 4.22% | Cell survival rate (Eca-109 cells; [4]): 59.89 ± 4.24% | Cell survival rate (Eca-109 cells; [5]): 95.76 ± 3.16% | Cell survival rate (Eca-109 cells; [6]): 86.66 ± 2.94% | Cell survival rate (Eca-109 cells; [7]): 70.66 ± 3.78% | Cell survival rate (Eca-109 cells; [8]): 51.36 ± 3.67% | Cell survival rate (Eca-109 cells; [9]): 94.07 ± 2.58% | Cell survival rate (Eca-109 cells; [10]): 79.33 ± 2.24% | Cell survival rate (Eca-109 cells; [11]): 56.40 ± 2.33% | Cell survival rate (Eca-109 cells; [12]): 40.90 ± 2.34% | Cell survival rate (Eca-109 cells; [13]): 84.49 ± 1.32% | Cell survival rate (Eca-109 cells; [14]): 83.57 ± 1.12% | Cell survival rate (Eca-109 cells; [15]): 33.91 ± 1.07% | Cell survival rate (Eca-109 cells; [16]): 33.91 ± 1.01% | photodynamic activity compared between P-1 and P-2 (SGC7901 cells): better than P-1 | Cell survival rate (SGC7901 cells; [1]): 100.80 ± 0.91% | Cell survival rate (SGC7901 cells; [2]): 83.27 ± 0.82% | Cell survival rate (SGC7901 cells; [3]): 76.47 ± 1.65% | Cell survival rate (SGC7901 cells; [4]): 66.13 ± 0.60% | Cell survival rate (SGC7901 cells; [5]): 97.25 ± 1.34% | Cell survival rate (SGC7901 cells; [6]): 70.77 ± 7.19% | Cell survival rate (SGC7901 cells; [7]): 60.00 ± 9.82% | Cell survival rate (SGC7901 cells; [8]): 49.32 ± 12.57% | Cell survival rate (SGC7901 cells; [9]): 82.72 ± 0.54% | Cell survival rate (SGC7901 cells; [10]): 52.91 ± 1.96% | Cell survival rate (SGC7901 cells; [11]): 41.72 ± 0.35% | Cell survival rate (SGC7901 cells; [12]): 34.58 ± 0.66% | killing effect of photodynamic therapy (SGC7901 cells; drug-dose and light-intensity dependent): obvious killing effect | sensitivity compared between P-1 and P-2 (MDA-MB-231 cells): more sensitive than P-1 | Cell survival rate (MDA-MB-231 cells; [1]): 100.17 ± 4.03% | Cell survival rate (MDA-MB-231 cells; [2]): 87.82 ± 4.09% | Cell survival rate (MDA-MB-231 cells; [3]): 71.8 ± 4.16% | Cell survival rate (MDA-MB-231 cells; [4]): 52.23 ± 4.16% | Cell survival rate (MDA-MB-231 cells; [5]): 97.69 ± 3.63% | Cell survival rate (MDA-MB-231 cells; [6]): 73.80 ± 3.22% | Cell survival rate (MDA-MB-231 cells; [7]): 49.35 ± 3.46% | Cell survival rate (MDA-MB-231 cells; [8]): 45.69 ± 3.16% | Cell survival rate (MDA-MB-231 cells; [9]): 91.44 ± 2.57% | Cell survival rate (MDA-MB-231 cells; [10]): 59.92 ± 2.94% | Cell survival rate (MDA-MB-231 cells; [11]): 46.57 ± 2.43% | Cell survival rate (MDA-MB-231 cells; [12]): 40.31 ± 2.28% | Cell survival rate (MDA-MB-231 cells; [13]): 81.55 ± 1.21% | Cell survival rate (MDA-MB-231 cells; [14]): 49.18 ± 1.33% | Cell survival rate (MDA-MB-231 cells; [15]): 40.03 ± 1.12% | Cell survival rate (MDA-MB-231 cells; [16]): 31.15 ± 0.96% | cytotoxicity of alone treatment (the cell lines): did not produce significant cytotoxicity | Cell survival rate (MCF-7 cells; [1]): 98.46 ± 4.62% | Cell survival rate (MCF-7 cells; [2]): 89.08 ± 3.99% | Cell survival rate (MCF-7 cells; [3]): 76.83 ± 4.26% | Cell survival rate (MCF-7 cells; [4]): 72.40 ± 4.14% | Cell survival rate (MCF-7 cells; [5]): 84.93 ± 3.16% | Cell survival rate (MCF-7 cells; [6]): 65.11 ± 2.73% | Cell survival rate (MCF-7 cells; [7]): 48.15 ± 3.12% | Cell survival rate (MCF-7 cells; [8]): 41.81 ± 3.77% | Cell survival rate (MCF-7 cells; [9]): 82.94 ± 2.28% | Cell survival rate (MCF-7 cells; [10]): 51.79 ± 2.10% | Cell survival rate (MCF-7 cells; [11]): 44.80 ± 2.22% | Cell survival rate (MCF-7 cells; [12]): 34.81 ± 2.43% | Cell survival rate (MCF-7 cells; [13]): 80.23 ± 1.03% | Cell survival rate (MCF-7 cells; [14]): 40.31 ± 1.02% | Cell survival rate (MCF-7 cells; [15]): 35.46 ± 1.02% | Cell survival rate (MCF-7 cells; [16]): 26.14 ± 1.07%
